Assay results as given in ChEMBL document CHEMBL5338747, “Discovery of Quaternized Pyridine-Thiazole-Pleuromutilin Derivatives with Broad-Spectrum Antibacterial and Potent Anti-MRSA Activity” (J Med Chem, 2023).
≈ marks a conversion by molar mass, not a printed value.

What was measured:
Staphylococcus aureus [1] = assay: Antibacterial activity against […] assessed as inhibition of bacterial growth incubated for 24 hrs by broth microdilution method; assay type: functional; details: ATCC 29213
Pseudomonas aeruginosa = assay: Antibacterial activity against multidrug-resistant Pseudomonas aeruginosa 126 assessed as inhibition of bacterial growth incubated for 24 hrs by broth microdilution method; assay type: functional
Staphylococcus aureus [2] = assay: Antibacterial activity against methicillin-resistant Staphylococcus aureus 222 assessed as inhibition of bacterial growth incubated for 24 hrs by broth microdilution method; assay type: functional
Staphylococcus aureus [3] = assay: Antibacterial activity against methicillin-resistant Staphylococcus aureus ATCC 43300 assessed as inhibition of bacterial growth incubated for 24 hrs by broth microdilution method; assay type: functional
Enterococcus = assay: Antibacterial activity against vancomycin-resistant Enterococcus 80 assessed as inhibition of bacterial growth incubated for 24 hrs by broth microdilution method; assay type: functional
Acinetobacter baumannii [4] = assay: Antibacterial activity against carbapenem-resistant Acinetobacter baumannii 882 assessed as inhibition of bacterial growth incubated for 24 hrs by broth microdilution method; assay type: functional
Acinetobacter baumannii [5] = assay: Antibacterial activity against Acinetobacter baumannii ATCC 19606 assessed as inhibition of bacterial growth incubated for 24 hrs by broth microdilution method; assay type: functional
Escherichia coli [6] = assay: Antibacterial activity against Escherichia coli CMCC 44103 assessed as inhibition of bacterial growth incubated for 24 hrs by broth microdilution method; assay type: functional
[7] = system: Staphylococcus epidermidis; assay: Antibacterial activity against methicillin-resistant Staphylococcus epidermidis ATCC 51625 assessed as inhibition of bacterial growth incubated for 24 hrs by broth microdilution method; assay type: functional
Escherichia coli [8] = assay: Antibacterial activity against Escherichia coli ATCC 25922 assessed as inhibition of bacterial growth incubated for 24 hrs by broth microdilution method; assay type: functional
Klebsiella pneumoniae = assay: Antibacterial activity against multidrug-resistant Klebsiella pneumoniae 893 assessed as inhibition of bacterial growth incubated for 24 hrs by broth microdilution method; assay type: functional
Salmonella enterica = assay: Antibacterial activity against Salmonella enterica ATCC 14028 assessed as inhibition of bacterial growth incubated for 24 hrs by broth microdilution method; assay type: functional
Staphylococcus aureus [9] = assay: Antibacterial activity against methicillin-resistant Staphylococcus aureus ATCC 33591 assessed as inhibition of bacterial growth incubated for 24 hrs by broth microdilution method; assay type: functional
Staphylococcus aureus [10] = assay: Antibacterial activity against methicillin-resistant Staphylococcus aureus 171 assessed as inhibition of bacterial growth incubated for 24 hrs by broth microdilution method; assay type: functional
Staphylococcus aureus [11] = assay: Antibacterial activity against methicillin-resistant Staphylococcus aureus 596 assessed as inhibition of bacterial growth incubated for 24 hrs by broth microdilution method; assay type: functional
Staphylococcus aureus [12] = assay: Antibacterial activity against methicillin-resistant Staphylococcus aureus 575 assessed as inhibition of bacterial growth incubated for 24 hrs by broth microdilution method; assay type: functional
Staphylococcus aureus [13] = assay: Antibacterial activity against methicillin-resistant Staphylococcus aureus 206 assessed as inhibition of bacterial growth incubated for 24 hrs by broth microdilution method; assay type: functional
[14] = Cytotoxicity against human HEK293 cells assessed as reduction in cell viability measured after 48 hrs by CCK8 assay; assay type: toxicity, cell-based
[15] = Cytotoxicity against human HepG2 cells assessed as reduction in cell viability measured after 48 hrs by CCK8 assay; assay type: toxicity, cell-based
[16] = Aqueous solubility of the compound in physiological saline measured after 12 hrs by UV spectrophotometric analysis; assay type: physicochemical
[17] = Cytotoxicity against human A549 cells assessed as reduction in cell viability measured after 48 hrs by CCK8 assay; assay type: toxicity, cell-based

SMILES | MIC (Staphylococcus aureus [1]) | MIC (Pseudomonas aeruginosa) | MIC (Staphylococcus aureus [2]) | MIC (Staphylococcus aureus [3]) | MIC (Enterococcus) | MIC (Acinetobacter baumannii [4]) | MIC (Acinetobacter baumannii [5]) | MIC (Escherichia coli [6]) | MIC [7] | MIC (Escherichia coli [8]) | MIC (Klebsiella pneumoniae) | MIC (Salmonella enterica) | MIC (Staphylococcus aureus [9]) | MIC (Staphylococcus aureus [10]) | MIC (Staphylococcus aureus [11]) | MIC (Staphylococcus aureus [12]) | MIC (Staphylococcus aureus [13]) | CC50 at 48 h [14] | CC50 at 48 h [15] | solubility at 12 h [16] | also measured
COc1c(N2C[C@@H]3CCCN[C@@H]3C2)c(F)cc2c(=O)c(C(=O)O)cn(C3CC3)c12 [MOXIFLOXACIN] | 0.062 µg/mL (≈ 0.154 µM) | 8 µg/mL (≈ 19.9 µM) | 0.5 µg/mL (≈ 1.25 µM) | 0.25 µg/mL (≈ 0.623 µM) | 0.5 µg/mL (≈ 1.25 µM) | 32 µg/mL (≈ 79.7 µM) | 2 µg/mL (≈ 4.98 µM) | 0.25 µg/mL (≈ 0.623 µM) | 0.5 µg/mL (≈ 1.25 µM) | 0.125 µg/mL (≈ 0.311 µM) | 16 µg/mL (≈ 39.9 µM) | 2 µg/mL (≈ 4.98 µM) | 1 µg/mL (≈ 2.49 µM) | 32 µg/mL (≈ 79.7 µM) | 2 µg/mL (≈ 4.98 µM) | 8 µg/mL (≈ 19.9 µM) | 4 µg/mL (≈ 9.96 µM) |  |  |  | 
C=C[C@]1(C)C[C@@H](OC(=O)CSc2nc(-c3cc[n+](Cc4ccc(OC)cc4)cc3)cs2)[C@]2(C)[C@H](C)CC[C@]3(CCC(=O)[C@H]32)[C@@H](C)[C@@H]1O.[Br-] | 0.5 µg/mL | 64 µg/mL | 4 µg/mL | 1 µg/mL | 2 µg/mL | 8 µg/mL | 2 µg/mL | 1 µg/mL | 4 µg/mL | 0.5 µg/mL | 64 µg/mL | 0.5 µg/mL | 1 µg/mL | 16 µg/mL | 8 µg/mL | 32 µg/mL | 16 µg/mL | 95.4 µM | > 100 µM | 653 µM | CC50 at 48 h [17]: 87.4 µM
Br.C=C[C@]1(C)C[C@@H](OC(=O)CSc2nc(-c3cc[n+](Cc4ccc([N+](=O)[O-])cc4)cc3)cs2)[C@]2(C)[C@H](C)CC[C@]3(CCC(=O)[C@H]32)[C@@H](C)[C@@H]1O | 0.125 µg/mL | 8 µg/mL | 2 µg/mL | 0.5 µg/mL | 8 µg/mL | 16 µg/mL | 2 µg/mL | 0.5 µg/mL | 2 µg/mL | 1 µg/mL | 16 µg/mL | 2 µg/mL | 1 µg/mL | 64 µg/mL | 2 µg/mL | 16 µg/mL | 16 µg/mL | 86.7 µM | 75.8 µM | 754 µM | CC50 at 48 h [17]: > 100 µM
C=C[C@]1(C)C[C@@H](OC(=O)CS[C@@H]2C[C@H]3CC[C@@H](C2)N3C)[C@]2(C)[C@H](C)CC[C@]3(CCC(=O)[C@H]32)[C@@H](C)[C@@H]1O [RETAPAMULIN] | 4 µg/mL (≈ 7.73 µM) | 128 µg/mL (≈ 247 µM) | 32 µg/mL (≈ 61.8 µM) | 16 µg/mL (≈ 30.9 µM) | > 128 µg/mL | 64 µg/mL (≈ 124 µM) | 4 µg/mL (≈ 7.73 µM) | 32 µg/mL (≈ 61.8 µM) | 64 µg/mL (≈ 124 µM) | 32 µg/mL (≈ 61.8 µM) | 64 µg/mL (≈ 124 µM) | 128 µg/mL (≈ 247 µM) | 32 µg/mL (≈ 61.8 µM) | 128 µg/mL (≈ 247 µM) | 32 µg/mL (≈ 61.8 µM) | 64 µg/mL (≈ 124 µM) | 128 µg/mL (≈ 247 µM) | 83.8 µM | 76.5 µM | 289 µM (≈ 150 µg/mL) | CC50 at 48 h [17]: > 100 µM
C=C[C@]1(C)C[C@@H](OC(=O)CSc2nc(-c3cc[n+](Cc4ccc(F)cc4)cc3)cs2)[C@]2(C)[C@H](C)CC[C@]3(CCC(=O)[C@H]32)[C@@H](C)[C@@H]1O.[Br-] | 1 µg/mL |  |  | 8 µg/mL |  |  | 16 µg/mL | 1 µg/mL | 4 µg/mL | 2 µg/mL |  | 1 µg/mL | 2 µg/mL |  |  |  |  |  |  | 807 µM | 
Br.C=C[C@]1(C)C[C@@H](OC(=O)CSc2nc(-c3cc[n+](Cc4ccc([N+](=O)[O-])o4)cc3)cs2)[C@]2(C)[C@H](C)CC[C@]3(CCC(=O)[C@H]32)[C@@H](C)[C@@H]1O | 4 µg/mL |  |  | 8 µg/mL |  |  | 16 µg/mL | 64 µg/mL | 8 µg/mL | 8 µg/mL |  | 32 µg/mL | 32 µg/mL |  |  |  |  |  |  | 1650 µM | 
C=C[C@]1(C)C[C@@H](OC(=O)CSc2nc(-c3cc[n+](CCCC)cc3)cs2)[C@]2(C)[C@H](C)CC[C@]3(CCC(=O)[C@H]32)[C@@H](C)[C@@H]1O.[Br-] | 4 µg/mL |  |  | 4 µg/mL |  |  | 16 µg/mL | 4 µg/mL | 4 µg/mL | 16 µg/mL |  | 2 µg/mL | 2 µg/mL |  |  |  |  |  |  | 672 µM | 
C=C[C@]1(C)C[C@@H](OC(=O)CSc2nc(-c3cc[n+](Cc4ccc(C(C)(C)C)cc4)cc3)cs2)[C@]2(C)[C@H](C)CC[C@]3(CCC(=O)[C@H]32)[C@@H](C)[C@@H]1O.[Br-] | 0.25 µg/mL |  |  | 2 µg/mL |  |  | 2 µg/mL | 2 µg/mL | 2 µg/mL | 2 µg/mL |  | 2 µg/mL | 1 µg/mL |  |  |  |  |  |  | 306 µM | 
C=C[C@]1(C)C[C@@H](OC(=O)CSc2nc(-c3cc[n+](Cc4ccc(Br)cc4)cc3)cs2)[C@]2(C)[C@H](C)CC[C@]3(CCC(=O)[C@H]32)[C@@H](C)[C@@H]1O.[Br-] | 0.5 µg/mL |  |  | 1 µg/mL |  |  | 2 µg/mL | 0.5 µg/mL | 8 µg/mL | 2 µg/mL |  | 4 µg/mL | 2 µg/mL |  |  |  |  |  |  | 760 µM | 
C=C[C@]1(C)C[C@@H](OC(=O)CSc2nc(-c3cc[n+](Cc4cc(OC)cc(OC)c4)cc3)cs2)[C@]2(C)[C@H](C)CC[C@]3(CCC(=O)[C@H]32)[C@@H](C)[C@@H]1O.[Br-] | 128 µg/mL |  |  | 128 µg/mL |  |  | 8 µg/mL | 8 µg/mL | 128 µg/mL | 32 µg/mL |  | 16 µg/mL | 64 µg/mL |  |  |  |  |  |  | 912 µM | 
